In ChEMBL document CHEMBL6096630, “Enhancing therapeutic efficacy in homologous recombination-proficient pancreatic cancer via the combination of PARP1-PROTAC and a BRD4 inhibitor” (Bioorg Med Chem, 2024):
Active and inactive are the calls of the source. The calls are words filed in the database; no cut-off is given here.

Experiments:
[1] = system: PANC-1; assay: Anti-invasive activity in human PANC-1 cells assessed as increase in invasion inhibition at 2 uM in presence of JQ1 incubated for 48 hrs by Matrigel assay relative to combination of OL/JQ1; type: functional; design: scale not given: the % may be the effect or the level left
[2] = system: PANC-1; assay: Induction of apoptosis in human PANC-1 cells assessed as increase in Bax level at 2 uM incubated for 48 hrs in presence of JQ1 by Western blot analysis; type: functional, cell-based
[3] = biological target: Protein cereblon/Poly [ADP-ribose] polymerase 1 (Homo sapiens, UniProt P09874+Q96SW2); assay: PROTAC activity at CRBN/PARP1 in human PANC-1 cells assessed as induction of PARP1 degradation incubated for 24 hrs by Western blot analysis relative to control; type: cell-based
Protein cereblon/Poly [ADP-ribose] polymerase 1, sequence (P09874 2-1014 limits assumed): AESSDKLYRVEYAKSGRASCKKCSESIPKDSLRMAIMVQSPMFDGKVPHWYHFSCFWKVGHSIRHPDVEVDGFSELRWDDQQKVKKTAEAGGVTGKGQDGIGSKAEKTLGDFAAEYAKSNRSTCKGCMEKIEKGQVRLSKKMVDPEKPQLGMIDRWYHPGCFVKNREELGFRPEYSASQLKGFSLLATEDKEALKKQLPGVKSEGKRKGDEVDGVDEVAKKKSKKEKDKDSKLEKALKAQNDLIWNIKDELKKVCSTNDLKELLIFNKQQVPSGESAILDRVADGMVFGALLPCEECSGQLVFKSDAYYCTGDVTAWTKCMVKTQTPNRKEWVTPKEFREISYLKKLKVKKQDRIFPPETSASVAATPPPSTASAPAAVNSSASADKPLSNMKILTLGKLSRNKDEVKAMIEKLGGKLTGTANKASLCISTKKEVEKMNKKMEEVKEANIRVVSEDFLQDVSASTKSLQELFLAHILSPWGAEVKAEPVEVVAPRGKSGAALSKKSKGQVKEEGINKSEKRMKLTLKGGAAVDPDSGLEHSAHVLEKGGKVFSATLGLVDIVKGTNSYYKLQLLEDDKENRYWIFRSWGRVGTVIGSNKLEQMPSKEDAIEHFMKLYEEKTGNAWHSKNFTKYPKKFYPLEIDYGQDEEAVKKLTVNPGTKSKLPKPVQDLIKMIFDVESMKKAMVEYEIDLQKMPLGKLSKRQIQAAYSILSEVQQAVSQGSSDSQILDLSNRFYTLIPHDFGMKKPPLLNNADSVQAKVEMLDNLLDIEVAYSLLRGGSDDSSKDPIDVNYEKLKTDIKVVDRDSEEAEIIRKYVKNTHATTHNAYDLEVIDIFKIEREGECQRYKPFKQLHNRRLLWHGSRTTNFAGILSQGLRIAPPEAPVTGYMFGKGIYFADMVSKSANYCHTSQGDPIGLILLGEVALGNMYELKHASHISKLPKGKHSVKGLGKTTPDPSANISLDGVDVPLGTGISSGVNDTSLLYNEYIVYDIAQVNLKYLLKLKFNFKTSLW
Protein cereblon/Poly [ADP-ribose] polymerase 1, sequence (Q96SW2 whole entry partner): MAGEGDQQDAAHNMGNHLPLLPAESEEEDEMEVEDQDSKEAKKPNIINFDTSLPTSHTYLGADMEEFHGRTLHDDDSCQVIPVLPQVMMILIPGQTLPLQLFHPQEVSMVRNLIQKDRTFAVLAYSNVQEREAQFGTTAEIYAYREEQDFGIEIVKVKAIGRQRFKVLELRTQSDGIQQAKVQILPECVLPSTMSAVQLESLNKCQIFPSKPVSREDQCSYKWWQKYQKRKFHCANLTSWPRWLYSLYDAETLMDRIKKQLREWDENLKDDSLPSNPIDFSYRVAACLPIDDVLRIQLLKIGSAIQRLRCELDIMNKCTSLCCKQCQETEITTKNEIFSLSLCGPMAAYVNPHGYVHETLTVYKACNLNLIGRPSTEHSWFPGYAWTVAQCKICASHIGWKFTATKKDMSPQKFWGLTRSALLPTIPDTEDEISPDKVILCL

[4] = system: PANC-1; assay: Induction of cell cycle arrest in human PANC-1 cells assessed as accumulation at G2/M phase at 2 uM incubated for 24 hrs in presence of JQ1 by PI staining based flow cytometry relative to control; type: functional
[5] = system: PANC-1; assay: Induction of DNA damage in human PANC-1 cells assessed as increase in gamma-H2AX level at 2 uM in presence of JQ1 by immunofluorescence based analysis; type: functional, cell-based
[6] = system: PANC-1; assay: Anti-migration activity in human PANC-1 cells at 2 uM in presence of JQ1 incubated for 24 hrs by transwell assay relative to control; type: functional
[7] = system: PANC-1; assay: Induction of apoptosis in human PANC-1 cells assessed as late apoptotic cells at 0.5 uM incubated for 48 hrs by Annexin V-FITC/PI staining based flow cytometry (reference value: 3.87 %); type: functional
[8] = system: PANC-1; assay: Induction of DNA damage in human PANC-1 cells assessed as increase in gamma-H2AX level at 1 uM in presence of OL by Western blot analysis; type: functional, cell-based
[9] = system: PANC-1; assay: Induction of cell cycle arrest in human PANC-1 cells assessed as accumulation at S phase at 0.12 uM incubated for 24 hrs by PI staining based flow cytometry (reference value: 38.94 %); type: functional
[10] = Toxicity in BALB/c mouse xenografted with human PANC-1 cells assessed as pathological changes in lung at 20 mg/kg, ip for 4 weeks administered for 5 days consecutively and 2 days without treatment on every week in presence of OL by H and E staining based analysis; type: organism-based; conditions: in vivo, 672 h
[11] = Toxicity in BALB/c mouse xenografted with human PANC-1 cells assessed as pathological changes in spleen at 20 mg/kg, ip for 4 weeks administered for 5 days consecutively and 2 days without treatment on every week by H and E staining based analysis; type: organism-based; conditions: in vivo, 672 h
[12] = Toxicity in BALB/c mouse xenografted with human PANC-1 cells assessed as drug tolerance at 20 mg/kg, ip for 4 weeks administered for 5 days consecutively and 2 days without treatment on every week in presence of OL; type: organism-based; conditions: in vivo, 672 h
[13] = system: PANC-1; assay: Induction of cell cycle arrest in human PANC-1 cells assessed as accumulation at S phase at 0.5 uM incubated for 24 hrs by PI staining based flow cytometry (reference value: 38.94 %); type: functional
[14] = system: PANC-1; assay: Induction of apoptosis in human PANC-1 cells assessed as late apoptotic cells at 1 uM incubated for 48 hrs in presence of OL by Annexin V-FITC/PI staining based flow cytometry (reference value: 3.87 %); type: functional
[15] = system: PANC-1; assay: Induction of apoptosis in human PANC-1 cells assessed as early apoptotic cells at 0.12 uM incubated for 48 hrs by Annexin V-FITC/PI staining based flow cytometry (reference value: 1.41 %); type: functional
[16] = system: PANC-1; assay: Anti-migration activity in human PANC-1 cells at 1 uM in presence of OL incubated for 24 hrs by wound healing assay; type: functional, cell-based
[17] = system: PANC-1; assay: Induction of apoptosis in human PANC-1 cells assessed as early apoptotic cells at 0.5 uM incubated for 48 hrs by Annexin V-FITC/PI staining based flow cytometry (reference value: 1.41 %); type: functional
[18] = system: PANC-1; assay: Induction of apoptosis in human PANC-1 cells assessed as late apoptotic cells at 0.12 uM incubated for 48 hrs by Annexin V-FITC/PI staining based flow cytometry (reference value: 3.87 %); type: functional
[19] = system: PANC-1; assay: Synergistic antiproliferative activity against human PANC-1 cells expressing wild-type BRCA assessed as combination index at 2:1 ratio of compound:JQ1 incubated for 5 days by CCK8 assay; type: functional; conditions: time 5 day

SMILES: O=C1CCC(N2C(=O)c3cccc(NC(=O)CNCCCCCCCCCCC(=O)N4CCN(C(=O)c5cc(Cc6n[nH]c(=O)c7ccccc67)ccc5F)CC4)c3C2=O)C(=O)N1 (centres undefined)
- Activity [1]: ~11%
- Activity [2]: Active
- Emax [3]: > 95%
- Activity [4]: 8.3%
- Activity [5]: Active
- Activity [6]: 84.4%

SMILES: Cc1sc2c(c1C)C(c1ccc(Cl)cc1)=N[C@@H](CC(=O)OC(C)(C)C)c1nnc(C)n1-2
- Activity [7]: 10.08%
- Activity [8]: Active
- Activity [9]: 40.51%
- Activity [10]: Non-toxic
- Activity [11]: Non-toxic
- Activity [12]: Non-toxic
- Activity [13]: 35.66%
- Activity [14]: 21.52%
- Activity [15]: 2.83%
- Activity [16]: Active
- Activity [17]: 3.52%
- Activity [18]: 3.99%

SMILES: O=C(c1cc(Cc2n[nH]c(=O)c3ccccc23)ccc1F)N1CCN(C(=O)C2CC2)CC1 [OLAPARIB]
- CI [19]: <1
